Reference: patent US6875760B2 (Novo Nordisk A/S, priority 1999, dated 2005)
pIC50: −log10 of the molar value.

Molecular target: T1, cloned human glucagon receptor (Homo sapiens, UniProt P47871)
T1 construct: expressed in transfected cells; plasma membrane preparation
Test: Glucagon Binding Assay (II)
Conditions: not given
Description: Binding of compounds to the glucagon receptor was determined in a competition binding assay using the cloned human glucagon receptor.
The receptor inserted in the pLJ6′ expression vector using EcoRI/SSt1 restriction sites (Lok et al.) was expressed in a baby hamster kidney cell line (A3 BHK 570-25).
The homogenate was resuspended and centrifuged again. The final precipitate containing the plasma membranes was suspended in buffer and stored at −80° C. until use.
Binding assays were carried out in duplicate in polypropylene tubes or microtiter plates. The buffer used in this assay was 50 mM HEPES pH 7.4 containing 5 mM EGTA, 5 mM MgCl2 and 0.005% Tween 20. Sample (glucagon (Bachem CA) or test compounds) was added to each tube or well. Tracer (˜25.000 cpm) was diluted in buffer and was added to each tube or well. 0.5 mg freshly thawed plasma membrane protein diluted in buffer was then added in aliquots to each tube or well. Tubes or plates were incubated at 37° C. for 1 hour. Non-specific binding was determined with 10^−7 M of glucagon. Bound tracer and unbound tracer were then separated by vacuum filtration. The tubes or wells were washed twice with 0.01% Triton X-100 buffer. Scintillation fluid was added to the plates and radioactivity was quantified using a scintillation counter.

T1 sequence (P47871 26-477): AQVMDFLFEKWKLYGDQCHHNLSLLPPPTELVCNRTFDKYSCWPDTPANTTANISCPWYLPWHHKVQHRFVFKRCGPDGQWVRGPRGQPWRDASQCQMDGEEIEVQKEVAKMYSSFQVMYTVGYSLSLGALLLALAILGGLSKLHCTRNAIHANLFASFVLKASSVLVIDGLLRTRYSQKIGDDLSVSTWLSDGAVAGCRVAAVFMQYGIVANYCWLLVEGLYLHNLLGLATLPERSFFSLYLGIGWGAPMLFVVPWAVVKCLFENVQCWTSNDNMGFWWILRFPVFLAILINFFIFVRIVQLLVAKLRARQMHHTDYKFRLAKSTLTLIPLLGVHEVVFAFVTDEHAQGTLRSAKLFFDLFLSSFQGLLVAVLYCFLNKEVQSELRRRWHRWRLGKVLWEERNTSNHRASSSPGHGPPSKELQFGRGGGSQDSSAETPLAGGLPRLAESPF

SMILES | pIC50
CC(C)(C)C1CCC(N(Cc2ccc(C(=O)NCCC(=O)O)cc2)C(=O)Nc2ccc(Cl)c(Cl)c2)CC1 (centres unmarked) [drawing 1169] | 6.65

Same assay, conditions: plasma membranes of BHK cells expressing the receptor; read-out: Glu Bd Assay (II) IC50

pIC50 | SMILES
8.40 | O=C(Nc1nn[nH]n1)c1ccc(CN(C(=O)Nc2ccc(OC(F)(F)F)cc2)[C@H]2CC[C@H](C3CCCCC3)CC2)cc1 [Example 576, 4-[1-(4-trans-Cyclohexylcyclohexyl)-3-(4-trifluoromethoxyphenyl)ureidomethyl]-N-(2H-tetrazol-5-yl)benzamide]
7.01 | O=C(O)CCNC(=O)c1ccc(CN(C(=O)NCc2ccc(Cl)c(Cl)c2)c2ccc(C3CCCCC3)cc2)cc1 [Example 606, 3-{4-[1-(4-Cyclohexylphenyl)-3-(3,4-dichlorobenzyl)ureidomethyl]benzoylamino}propionic acid]
6.93 | C[C@@H](NC(=O)N(Cc1ccc(C(=O)NCCC(=O)O)cc1)c1ccc(C2CCCCC2)cc1)c1ccc2ccccc2c1 [Example 610, 3-{4-[1-(4-Cyclohexylphenyl)-3-[(1R)-1-(2-naphthyl)ethyl]ureidomethyl]benzoylamino}propionic acid]
6.24 | CC(C)(C)[C@H]1CC[C@H](N(Cc2ccc(C(=O)NCCC(=O)O)cc2)Cc2cccc(S(C)(=O)=O)c2)CC1 [Example 613, 3-(4-{[(trans-4-tert-Butylcyclohexyl)-(3-methylsulfonylbenzyl)amino]methyl}benzoylamino)propionic acid]
7.30 | CC(C)(C)C1CCC(N(Cc2ccc(C(=O)NCCC(=O)O)cc2)C(=O)Nc2cc(Cl)cc(Cl)c2)CC1 (centres unmarked) [Example 104, 3-{4-[1-(4-tert-Butylcyclohexyl)-3-(3,5-dichlorophenyl)ureidomethyl]benzoylamino)propionic acid]
6.95 | CC1(C)[C@@H]2CC[C@@H](CN(Cc3ccc(C(=O)NCCC(=O)O)cc3)C(=O)Nc3ccc(OC(F)(F)F)cc3)[C@@H]1C2 [Example 234, 3-{4-[1-([(1S,2R,5R)-6,6-Dimethylbicyclo[3.1.1]hept-2-yl]methyl)-3-(4-trifluoromethoxyphenyl)ureidomethyl]benzoylamino}propionic acid]
7.80 | Cc1cc(C)c(Cc2ccc(C(=O)NN(Cc3ccc(C(=O)NCCC(=O)O)cc3)c3ccc(C4CCCCC4)cc3)o2)c(C)c1 [Example 592, 3-(4-{N-(4-Cyclohexylphenyl)-N′-[5-(2,4,6-trimethylbenzyl)furan-2-carbonyl]hydrazinomethyl}benzoylamino)propionic acid]
6.97 | CC(C)(C)C1CCC(N(Cc2ccc(C(=O)NCCC(=O)O)cc2)NC(=O)c2ccc(OC(F)(F)F)cc2)CC1 (centres unmarked) [drawing 1171]

The next lines start with the compound.

SMILES | pIC50
CC(C)S(=O)(=O)Cc1cccc(NC(=O)N(Cc2ccc(C(=O)Nc3nn[nH]n3)cc2)c2ccc(C3CCCCC3)cc2)c1 [Example 389, 4-{1-(4-Cyclohexylphenyl)-3-[3-(propane-2-sulfonylmethyl)phenyl]ureidomethyl}-N-(2H-tetrazol-5-yl)benzamide] | 6.47
CC(C)(C)C1CCC(N(Cc2ccc(C(=O)NCCC(=O)O)cc2)C(=O)Nc2ccc(Oc3ccccc3)cc2)CC1 (centres unmarked) [drawing 1168] | 6.92
CC(C)(C)C1CCC(N(Cc2ccc(C(=O)NCCC(=O)O)cc2)C(=O)Nc2cc(C(F)(F)F)cc(C(F)(F)F)c2)CC1 (centres unmarked) | 8.00
COC(=O)CCNC(=O)c1ccc(CN(C(=O)Nc2cc(C(F)(F)F)cc(C(F)(F)F)c2)C2CCC(C(C)(C)C)CC2)cc1 (centres unmarked) | 7.00
O=C(O)CCNC(=O)c1ccc(CN(Cc2cccc(Cl)c2)Cc2cccc(Cl)c2)cc1 [Example 154, 3-(4-{[Bis-(3-chlorobenzyl)amino]methyl}benzoylamino)propionic acid] | 6.78
O=C(Nc1nn[nH]n1)c1ccc(CN(Cc2ccc(OC(F)(F)F)cc2)c2ccc(C3CCCCC3)cc2)cc1 [Example 388, 4-{[(4-Cyclohexylphenyl)-(4-trifluoromethoxybenzyl)amino]methyl}-N-(2H-tetrazol-5-yl)benzamide] | 6.81
CC(C)(C)C1CCC(N(Cc2ccc(C(=O)NCCC(=O)O)cc2)C(=O)CNC(=O)OCC2c3ccccc3-c3ccccc32)CC1 (centres unmarked) | 6.16

Same assay, conditions: read-out: displacement of the glucagon tracer when screened at 1 μM concentration in the glucagon binding assay II

SMILES | inhibition at 1 µM [%]
CC(C)(C)C1CCC(N(Cc2ccc(C(=O)NCCC(=O)O)cc2)C(=O)NC(=O)Oc2ccccc2)CC1 (centres unmarked) [Example 208, 3-{4-[1-(4-tert-Butylcyclohexyl)-3-(phenoxycarbonyl)ureidomethyl]benzoylamino}propionic acid] | > 50

Same assay, conditions: screened at 1 μM; library compounds; read-out: displacement of the glucagon tracer when screened at 1 μM concentration in the glucagon binding assay II

inhibition at 1 µM [%] | SMILES
> 50 | O=C(O)CCNC(=O)c1ccc(CN(C(=O)Nc2ccc(Cl)c(C(F)(F)F)c2)c2ccc3nc(S)sc3c2)cc1 [Example 183, 3-{4-[3-(4-Chloro-3-trifluoromethylphenyl)-1-(2-mercaptobenzothiazol-6-yl)ureidomethyl]benzoylamino}propionic acid]
> 50 | O=C(O)CCNC(=O)c1ccc(CN(C(=O)Nc2cccc(SC(F)(F)F)c2)c2ccc(C3CCCCC3)cc2)cc1 [Example 202, 3-{4-[1-(4-Cyclohexylphenyl)-3-(3-trifluoromethylsulfanylphenyl)ureidomethyl]benzoylamino}propionic acid]
> 50 | O=C(O)CCNC(=O)c1ccc(CN(C(=O)Nc2cccc(SC(F)(F)F)c2)c2ccc(C3CCCCC3)cc2)o1 [Example 210, 3-({5-[1-(4-cyclohexylphenyl)-3-(3-trifluoromethylsulfanylphenyl)ureidomethyl]furan-2-carbonyl}amino)propionic acid]
> 50 | O=C(O)CCNC(=O)c1ccc(CN(C(=O)Nc2ccc(OC(F)(F)F)cc2)c2ccc3nc(S)sc3c2)cc1 [Example 182, 3-{4-[1-(2-Mercaptobenzothiazol-6-yl)-3-(4-trifluoromethoxyphenyl)ureidomethyl]benzoylamino}propionic acid]
> 50 | COc1ccc(CN(Cc2ccc(C(C)C)cc2)Cc2ccc(C(=O)NCCC(=O)O)s2)cc1OC [Example 150, 3-(5-{[(3,4-Dimethoxybenzyl)-(4-isopropylbenzyl)amino]methyl}thiophene-2-carbonylamino)propionic acid]
> 50 | CC(=O)N1CCc2cc(N(Cc3ccc(C(=O)NCCC(=O)O)cc3)C(=O)Nc3ccc(Cl)c(C(F)(F)F)c3)ccc21 [Example 194, 3-{4-[1-(1-Acetyl-2,3-dihydro-1H-indol-5-yl)-3-(4-chloro-3-trifluoromethylphenyl)ureidomethyl]benzoylamino}propionic acid]
> 50 | CCCCc1ccc(NC(=O)N(Cc2ccc(C(=O)NCCC(=O)O)cc2)Cc2ccc(C(F)(F)F)cc2)cc1 [Example 118, 3-{4-[1-(4-Trifluoromethylbenzyl)-3-(4-butylphenyl)ureidomethyl]benzoylamino)propionic acid]
> 50 | O=C(O)CCNC(=O)c1ccc(CN(CCc2cccc(Cl)c2)C(=O)Nc2ccc(OC(F)(F)F)cc2)cc1 [Example 180, 3-{4-[1-[2-(3-Chlorophenyl)ethyl]-3-(4-trifluoromethoxyphenyl)ureidomethyl]benzoylamino}propionic acid]
> 50 | O=C(O)CCN1C(=O)c2ccc(CN(C(=O)Nc3ccc(OC(F)(F)F)cc3)c3ccc4nc(S)sc4c3)cc2C1=O [Example 228, 3-{5-[1-(2-Mercaptobenzothiazol-6-yl)-3-(4-trifluoromethoxyphenyl)ureidomethyl]-1,3-dioxo-1,3-dihydro-isoindol-2-yl}propionic acid]

Further lines, the compound ahead of its results:

SMILES | inhibition at 1 µM [%]
O=C(O)CCNC(=O)c1ccc(CN(Cc2ccccc2OC(F)(F)F)C(=O)Nc2ccc3ccccc3c2)s1 [Example 124, 3-{5-[1-(2-Trifluoromethoxybenzyl)-3-naphthalene-2-ylureidomethyl]thiophene-2-carbonylamino)propionic acid] | > 50
CC(=O)N1CCc2cc(N(Cc3ccc(C(=O)NCCC(=O)O)cc3)C(=O)NCOc3ccc4ccccc4c3)ccc21 [Example 206, 3-{4-[1-(1-Acetyl-2,3-dihydro-1H-indol-5-yl)-3-(naphthalen-2-yloxymethyl)ureidomethyl]benzoylamino}propionic acid] | > 50
O=C(O)CCNC(=O)c1ccc(CN(Cc2ccc(Br)cc2)C(=O)Nc2ccc(Cl)c(C(F)(F)F)c2)cc1 [Example 190, 3-{4-[1-(4-Bromobenzyl)-3-(4-chloro-3-trifluoromethylphenyl)ureidomethyl]benzoylamino}propionic acid] | > 50
O=C(O)CCNC(=O)c1ccc(CN(CCC(c2ccccc2)c2ccccc2)Cc2ccc(C(F)(F)F)cc2)s1 [Example 142, 3-(5-{[(3,3-Diphenylpropyl)-(4-trifluoromethylbenzyl)amino]methyl}thiophene-2-carbonylamino)propionic acid] | > 50
O=C(O)CCNC(=O)c1ccc(CN(Cc2ccccc2OC(F)(F)F)C(=O)Nc2ccc(SC(F)(F)F)cc2)cc1 [Example 117, 3-{4-[1-(2-Trifluoromethoxybenzyl)-3-(4-trifluoromethylsulfanylphenyl)ureidomethyl]benzoylamino)propionic acid] | > 50
COc1cc(CN(Cc2ccc(C(=O)NCCC(=O)O)cc2)C(=O)Nc2ccc3c(c2)OCO3)ccc1O [Example 122, 3-{4-[1-(4-Hydroxy-3-methoxybenzyl)-3-(3,4-methylenedioxyphenyl)ureidomethyl]benzoylamino)propionic acid] | > 50
